Measured values published in patent US8822448B2, “Pyrazoloquinoline compound” (Astellas Pharma Inc., priority 2010, dated 2014).
Counter-ions that a name gives are not always drawn.

Assays:
PDE9 = PDE9 (Homo sapiens (Human), UniProt O76083); test: PDE9-inhibiting activity (SPA enzyme assay); type: biochemical; settings: IC50 values; cGMP 1 μM substrate, 30° C.; read-out: PDE9 inhibition
Description: The PDE9-inhibiting activity was measured by the following method. That is, to a buffer solution containing tris(hydroxymethyl)aminomethane-hydrochloric acid (40 mM, pH 8.0), magnesium chloride (5 mM), and 2-mercaptoethanol (4 mM) were added cGMP (1 μM) and ^3H-cGMP (0.33 μCi/ml) to give a substrate buffer solution. A test substance solution and an enzyme solution which had been adjusted to an optimal concentration were added thereto to perform a reaction at 30° C. The enzyme reaction was stopped by the addition of Scintillation Proximity Assay (SPA) Beads (Perkin Elmer, USA) containing 5 mM 3-isobutyl-1-methylxanthine (IBMX). For the enzyme activity, the amount of 5′-GMP, which is a reaction degradation product bound to SPA beads, was measured with a TopCount microplate reader (Hewlett Packard, USA). The inhibitory rate was calculated by taking the radioactivity of the control containing no test substance as (A), taking the radioactivity of the blank containing no enzyme as (B), and taking the radioactivity of the test substance as (C), and using the following equation.

[1] = test system: urethra relaxation response; test: Simultaneous measurement model for rat bladder contraction/urethra relaxation responses; type: in vivo; settings: female SD rat, increase relative to the solvent administration group, read-out: Ratio with increased urethra relaxation time during voiding (vs vehicle) (%)
Description: Simultaneous measurement of the bladder contraction and urethra relaxation responses using a rat was carried out with a partial modification of a method in Wibberley et al. (Wibberley, A., et al., Br. J. Pharmacol., 136: pp. 399-414 (2002)). That is, a female Sprague-Dawley (SD) rat (Charles River Laboratories Japan, Inc.) was anesthetized with urethane, and the bladder was exposed by a midline incision in the lower abdomen. A double lumen cannula (a cannula having a dual structure by PE190 and PE50) from the bladder apex was inserted into the bladder, and the bladder apex and the cannula were fixed by sutures at a point where the tip reached the proximal urethra. While infusing physiological saline into the urethra through the outer cannula, the urethral inner pressure was measured by a pressure transducer through the inner cannula with a saline solution infused into the urethra through the outer cannula. On the other hand, a single cannula (PESO) was inserted into the bladder from the bladder apex and placed therein. The inner pressure of the bladder was measured through this cannula. After a postoperative stabilization period had passed, physiological saline was infused into the bladder through the cannula of the bladder apex to cause a bladder contraction reaction, and thus cause a urethra relaxation response accompanying the bladder contraction reflex. The test substance was administered intravenously or intraduodenally.

PDE9, sequence (O76083 whole entry): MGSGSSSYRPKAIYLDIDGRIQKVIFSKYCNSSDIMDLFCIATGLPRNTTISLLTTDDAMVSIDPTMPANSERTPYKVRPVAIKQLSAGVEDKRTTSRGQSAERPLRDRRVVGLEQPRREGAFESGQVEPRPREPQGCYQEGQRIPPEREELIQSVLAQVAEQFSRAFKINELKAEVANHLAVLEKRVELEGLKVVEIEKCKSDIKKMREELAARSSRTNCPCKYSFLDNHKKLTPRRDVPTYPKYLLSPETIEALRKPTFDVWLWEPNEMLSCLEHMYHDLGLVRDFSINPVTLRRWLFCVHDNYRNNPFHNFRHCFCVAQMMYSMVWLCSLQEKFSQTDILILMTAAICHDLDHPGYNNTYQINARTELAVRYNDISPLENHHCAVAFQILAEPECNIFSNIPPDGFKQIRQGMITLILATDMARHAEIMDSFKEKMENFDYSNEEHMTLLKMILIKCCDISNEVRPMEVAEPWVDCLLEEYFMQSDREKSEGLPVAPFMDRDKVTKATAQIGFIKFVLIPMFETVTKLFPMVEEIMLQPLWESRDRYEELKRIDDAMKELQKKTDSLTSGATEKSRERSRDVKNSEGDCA

Row | melting point | IC50 (PDE9) [nM] | Structure (SMILES) | response vs control in vivo at 1 mg/kg [1] [%]
1 | 122 to 124 °C |  | Cc1cc2[nH]c(=O)c3cnn(C4CCOCC4)c3c2cc1C(=O)N1CCN(CCCOC(C)C)CC1 [Example 64] | 
2 |  | 15 | Cc1cc2[nH]c(=O)c3cnn(C4CCC4)c3c2cc1C(=O)N1CCN(CC2CCOCC2)CC1 [Example 55] | 166
3 | 238 to 240 °C |  | Cc1cc2[nH]c(=O)c3cnn(C4CCOCC4)c3c2cc1C(=O)N1CCN(CCCOC(C)(C)C)CC1 [Example 77] | 
4 | 253 to 256 °C |  | Cc1cc2[nH]c(=O)c3cnn(C4CCOCC4)c3c2cc1C(=O)N1CCN(C)C(c2ccccc2)C1 (centres unmarked) [Example 21] | 
5 | 255 to 257 °C | 3.9 | Cc1cc2[nH]c(=O)c3cnn(C4CCOCC4)c3c2cc1C(=O)N1CCN(C)C(c2cccnc2)C1 (centres unmarked) [Example 49] | 
6 | 221 to 224 °C | 9.1 | Cc1cc2[nH]c(=O)c3cnn(C4CCOCC4)c3c2cc1C(=O)N1CCC2(CCN(Cc3ccccc3)CC2)CC1 [Example 16] | 
7 | 174 to 176 °C | 5.2 | Cc1cc2[nH]c(=O)c3cnn(C4CCOCC4)c3c2cc1C(=O)N1CCN(CCC(F)(F)F)CC1.Cl [Example 128] | 136
8 | 259 to 263 °C |  | Cc1cc2[nH]c(=O)c3cnn(C4CCOCC4)c3c2cc1C(=O)N1CCN(Cc2cccnc2)CC1 (as salt: hydrochloride) [Example 2, 7-methyl-8-{[4-(pyridin-3-ylmethyl)piperazin-1-yl]carbonyl}-1-(tetrahydro-2H-pyran-4-yl)-1,5-dihydro-4H-pyrazolo[4,3-c]quinolin-4-one dihydrochloride] | 
9 | 272 to 275 °C | 2.1 | Cc1cc2[nH]c(=O)c3cnn(C4CCOCC4)c3c2cc1C(=O)N1CCN(c2ccccn2)CC1 [Example 17] | 
10 | 228 to 230 °C |  | Cc1cc2[nH]c(=O)c3cnn(C4CCOCC4)c3c2cc1C(=O)N1CCN(C2CCCC2)CC1 [Example 255] | 
11 | 266 to 268 °C |  | Cc1cc2[nH]c(=O)c3cnn(C4CCOCC4)c3c2cc1C(=O)N1CCOC(c2cccnc2)C1 (centres unmarked) [Example 48] | 
12 | 212 to 213 °C | 8.3 | COCC(F)(F)CN1CCN(C(=O)c2cc3c(cc2C)[nH]c(=O)c2cnn(C4CCOCC4)c23)CC1 [Example 133] | 
13 | 250 to 253 °C | 2.2 | Cc1cc2[nH]c(=O)c3cnn(C4CCOCC4)c3c2cc1C(=O)N1CCC(Oc2ccccn2)CC1 [Example 22] | 142
14 | 254 to 256 °C |  | Cc1cc2[nH]c(=O)c3cnn(C4CCOCC4)c3c2cc1C(=O)N1CCN(CCCc2cccnc2)CC1 [Example 57] | 
15 | 217 to 219 °C | 8.4 | CCOCCCN1CCN(C(=O)c2cc3c(cc2C)[nH]c(=O)c2cnn(C4CCOCC4)c23)CC1 [Example 63] | 
16 | 272 to 274 °C |  | CCN1CCN(C(=O)c2cc3c(cc2C)[nH]c(=O)c2cnn(C4CCOCC4)c23)CC1c1cccnc1 (centres unmarked) [Example 91] | 
17 | 263 to 265 °C |  | Cc1cc2[nH]c(=O)c3cnn(C4CCCC4)c3c2cc1C(=O)N1CCN(C2CCOCC2)CC1 [Example 58] | 

More lines, now with the values behind:

Row | Structure (SMILES) | melting point | IC50 (PDE9) [nM] | response vs control in vivo at 1 mg/kg [1] [%]
18 | COCCCCN1CCN(C(=O)c2cc3c(cc2C)[nH]c(=O)c2cnn(C4CCCC4)c23)CC1 [Example 67] | 234 to 236 °C |  | 
19 | O=C(c1ccc2c(c1)[nH]c(=O)c1cnn(C3CCCC3)c12)N1CCc2cc(Cl)ccc21 [Example 1, 7-[(5-chloro-2,3-dihydro-1H-indol-1-yl)carbonyl]-1-cyclopentyl-1,5-dihydro-4H-pyrazolo[4,3-c]quinolin-4-one] | 291 to 294 °C | 18 | 
20 | Cc1cc2[nH]c(=O)c3cnn(C4CCOCC4)c3c2cc1C(=O)N1CCC(OCC2CC2)CC1 [Example 41] | 206 to 208 °C | 5.7 | 159
21 | CCOCC1CN(C(=O)c2cc3c(cc2C)[nH]c(=O)c2cnn(C4CCOCC4)c23)C1 [Example 86] | 226 to 228 °C | 3.3 | 
22 | CCOC1CCN(C(=O)c2cc3c(cc2C)[nH]c(=O)c2cnn(C4CCOCC4)c23)CC1 [Example 40] |  | 8.9 | 138
23 | COCCN1CCN(C(=O)c2cc3c(cc2C)[nH]c(=O)c2cnn(C4CCOCC4)c23)C[C@@H]1c1ccccc1 [Example 47] | 218 to 220 °C |  | 
24 | Cc1cc2[nH]c(=O)c3cnn(C4CCOCC4)c3c2cc1C(=O)NCC1(N2CCOCC2)CCCCC1.Cl [Example 23] | 281 to 283 °C | 0.4 | 168
25 | O=C(c1ccc2c(c1)[nH]c(=O)c1cnn(C3CCOCC3)c12)N1CCOC(c2ccccc2F)C1 (centres unmarked) [Example 20] | 174 to 176 °C |  | 
26 | Cc1cc2[nH]c(=O)c3cnn([C@H]4CCOC4)c3c2cc1C(=O)N1CCC(OC2CC2)CC1 [Example 218] | 197 to 198 °C | 17 | 
27 | Cc1cc2[nH]c(=O)c3cnn(C4CCOCC4)c3c2cc1C(=O)N1CCC(OC[C@@H](C)F)CC1 [Example 177] | 205 to 206 °C | 9.7 | 
28 | CCOCC1CCN(C(=O)c2cc3c(cc2C)[nH]c(=O)c2cnn(C4CCOCC4)c23)CC1 [Example 56] |  | 4.4 | 158
29 | O=C(c1ccc2c(c1)[nH]c(=O)c1cnn(C3CCOCC3)c12)N1CCOC(c2ccc(F)cc2)C1 (centres unmarked) [Example 14] | 293 to 296 °C | 81 | 
30 | COCCC1CCN(C(=O)c2cc3c(cc2C)[nH]c(=O)c2cnn(C4CCOCC4)c23)CC1 [Example 66] | 241 to 242 °C | 4.3 | 
31 | COCC1CCN(C(=O)c2cc3c(cc2C)[nH]c(=O)c2cnn(C4CCOCC4)c23)CC1.Cl [Example 28] | 253 to 255 °C | 9.1 | 
32 | COCCCCN1CCN(C(=O)c2cc3c(cc2C)[nH]c(=O)c2cnn(CC4CCC4)c23)CC1 [Example 90] | 178 to 180 °C |  | 
33 | CN1CCN(C(=O)c2ccc3c(c2)[nH]c(=O)c2cnn(C4CCOCC4)c23)CC1c1ccccc1 (centres unmarked) [Example 13] | 183 to 186 °C | 85 | 
34 | Cc1nn(C2CCCC2)c2c1c(=O)[nH]c1cc(C(=O)N3CCc4cc(F)ccc43)ccc12 [Example 18] | 321 to 323 °C |  | 
35 | CCCOC1CCN(C(=O)c2cc3c(cc2C)[nH]c(=O)c2cnn(C4CCOCC4)c23)CC1 [Example 53] | 216 to 218 °C | 3.9 | 145
36 | COc1cc2c(cn1)N(C(=O)c1ccc3c(c1)[nH]c(=O)c1cnn(C4CCOCC4)c13)CC2 [Example 15] | 337 to 340 °C |  | 
37 | COCCCN1CCN(C(=O)c2cc3c(cc2C)[nH]c(=O)c2cnn(CC4CCC4)c23)CC1 [Example 97] | 186 to 188 °C |  | 
38 | O=C(c1ccc2c(c1)[nH]c(=O)c1cnn(C3CCOCC3)c12)N1Cc2cccc(F)c2C1 [Example 19] | 312 to 318 °C (dec.) |  | 
39 | O=C(c1ccc2c(c1)[nH]c(=O)c1cnn(C3CCOCC3)c12)N1CCCC(c2ccccc2)C1 (centres unmarked) [Example 11] | 298 to 301 °C |  | 
40 | CCOCCCCN1CCN(C(=O)c2cc3c(cc2C)[nH]c(=O)c2cnn(C4CCOCC4)c23)C[C@@H]1C [Example 109] |  | 5.8 | 158
41 | COCCCCN1CCN(C(=O)c2cc3c(cc2C)[nH]c(=O)c2cnn(C4CCC4)c23)CC1 [Example 79] | 161 to 163 °C | 23 | 139
42 | COCCCCN1CCN(C(=O)c2cc3c(cc2C)[nH]c(=O)c2cnn(CC4CC4)c23)CC1.Cl [Example 103] | 207 to 208 °C | 13 | 
43 | Cc1cc2[nH]c(=O)c3cnn(C4CCOCC4)c3c2cc1C(=O)N1CCC(COC2CC2)CC1 [Example 217] | 210 to 211 °C | 4.4 | 
44 | O=C(c1ccc2c(c1)[nH]c(=O)c1cnn(C3CCOCC3)c12)N1CCc2cc(Cl)ccc21 [Example 12] | 341 to 343 °C | 8.6 | 
45 | Cc1cc2[nH]c(=O)c3cnn(C4CCOCC4)c3c2cc1C(=O)N1CCC(OCC(C)(F)F)CC1 [Example 176] | 210 to 211 °C | 8.4 | 
46 | COCCCN1CCN(C(=O)c2cc3c(cc2C)[nH]c(=O)c2cnn(C4CCC4)c23)C[C@@H]1C [Example 179] |  | 6.8 | 
47 | CCc1cc2[nH]c(=O)c3cnn(C4CCC4)c3c2cc1C(=O)N1CCN(CCC(F)(F)F)CC1 [Example 162] |  | 7 | 
